Measured values from PubChem BioAssay AID2060617 (Molecular Pharmacology Branch, DTP, NCI, 2025).

System: 485368-065-R4-J2-PDC spheroids with HUVEC/MSC, viability
Assay: Anticancer human tumor 485368-065-R4-J2-PDC patient-derived pancreatic carcinoma cell line growth inhibition [CLK]
Settings: for IC50: curve of first compound; for viability, T/C: stronger effect = lower value; active means viability on the fitted dose curve at most 10% of control; inactive means the rest
Description: A high-throughput screen of multi-cell type tumor spheroids was designed to identify active combinations of […] and targeted small molecules. Complex spheroids include a stromal component modeled by human endothelial cells (HUVEC) and fibroblasts modeled by human mesenchymal stem cells (MSCs). The concentration ranges selected for each drug and investigational agent were based upon clinically achievable concentrations if the clinical Cmax of the agent was known.
Compounds. The drugs and investigational agents: cirtuvivint (SM08502; NSC835563), CC-671 (NSC850746), vemurafenib (NSC761431), tapotoclax (NSC804041), sotorasib (NSC818433), adagrasib (NSC831453), MRTX-1133 (NSC836407), BAY2416964 (NSC825713), copanlisib (NSC816437), inavolisib (NSC800729), abemaciclib (NSC768073), osimertinib (NSC779217), entinostat (NSC756642), eltanexor (KPT-8602, NSC794443), venetoclax (NSC766270), ceralasertib (NSC777638), bortezomib (NSC756655), olaparib (NSC753686), talazoparib (NSC767125), alisertib (NSC759677), peposertib (NSC802822), gemcitabine (NSC613327), 5-fluorouracil (NSC19893), SN-38 (NSC673596), oxaliplatin (NSC266046), paclitaxel (NSC125973), and doxorubicin (NSC123127), were obtained from the National Cancer Institute (NCI) Developmental Therapeutics Program Chemical Repository. The FDA-approved anticancer drug set is available from the Developmental Therapeutics Program at https://dtp.cancer.gov/organization/dscb/obtaining/available plates.htm. […] The stock solutions were prepared in dimethyl sulfoxide (DMSO, Sigma-Aldrich, St. Louis, MO, cat. D2650), except for the platinum complexes which were prepared in saline (Quality Biological, Gaithersburg, MD, cat. 114-055-101), at 800-fold the tested concentration and stored at -70 degrees C prior to their use. All drugs and investigational agents were tested over a range starting from a high concentration at or near the clinical Cmax and decreasing in half-log increments. If the clinical Cmax for an agent had not been determined, the highest concentration tested was 10 microM.
Cell Culture. All cells were maintained in an incubator at 37 degrees C and 5% CO2 with 95% humidity. The PDC lines were cultured according to standard operating procedures established by the NCI PDMR. Briefly, all PDCs were thawed and cultured in Matrigel-coated flasks prepared with a working solution of 1X Ham's F-12 nutrient mix, without supplementation (Invitrogen, Waltham, MA, cat. 11765054), 100 U/mL penicillin-streptomycin (Invitrogen, cat. 15140122), and 2.5% Matrigel (Corning Inc., Corning, NY, cat. 354248) for the first three passages. The 947758-054-R-J2-PDC line was cultured in 6B/Colon 1A media, which includes advanced DMEM/F-12 (Thermo Fisher Scientific, cat. 12634028), 10 mM HEPES (Thermo Fisher Scientific, cat. 15630080), 1X GlutaMAX supplement (Thermo Fisher Scientific, cat. 35050061), 0.1 mg/mL primocin (InvivoGen, cat. ant-pm-2), 10% defined fetal bovine serum, heat inactivated (HyClone Laboratories Inc., cat. SH30070.03HI), 1.25 mM N-Acetyl-L-cysteine (Sigma-Aldrich, cat. A9165), 10 mM nicotinamide (Sigma-Aldrich, cat. N0636), 1X B-27 supplement (Thermo Fisher Scientific, cat. 17504044), 1X N-2 supplement (Thermo Fisher Scientific, cat. 17502048), and 10 microM Y-27632 dihydrochloride (Tocris Bioscience, cat. 1254). The 876862-298-R-J1-PDC was cultured in 6E media, which includes all 6B/Colon 1A media components plus 50% L-WRN conditioned media (ATCC, cat. CRL-3276), 50 ng/mL recombinant human EGF recombinant protein (hEGF; Thermo Fisher Scientific, cat. PHG0311), 10 ng/mL recombinant human fibroblast growth factor 10 (hGFG-10; PeproTech, cat. 100-26), 1 ng/mL recombinant human fibroblast growth factor 2 (hFGF-2; PeproTech, cat. 100-18B), and 1 µM prostaglandin E2 (PGE2; Tocris, cat. 2296). The 227483-062-R1-J1-PDC line was cultured in Panc media, containing all 6E components except hFGF-2, with the addition of 500 nM SB-431542 (Selleckchem, cat. S1067) and 10 nM gastrin (Tocris, cat. 3006). […]

[1] = second compound 0.0316 µM, first compound 0.0316 µM
[2] = second compound 0.0316 µM, first compound 0.1 µM
[3] = second compound 0.0316 µM, first compound 0.316 µM
[4] = second compound 0.0316 µM, first compound 1 µM
[5] = second compound 0.0316 µM, first compound 3.16 µM
[6] = second compound 0.0316 µM, first compound 10 µM
[7] = second compound 0.1 µM, first compound 0.0316 µM
[8] = second compound 0.1 µM, first compound 0.1 µM
[9] = second compound 0.1 µM, first compound 0.316 µM
[10] = second compound 0.1 µM, first compound 1 µM
[11] = second compound 0.1 µM, first compound 3.16 µM
[12] = second compound 0.1 µM, first compound 10 µM
[13] = second compound 0.316 µM, first compound 0.0316 µM
[14] = second compound 0.316 µM, first compound 0.1 µM
[15] = second compound 0.316 µM, first compound 0.316 µM
[16] = second compound 0.316 µM, first compound 1 µM
[17] = second compound 0.316 µM, first compound 3.16 µM
[18] = second compound 0.316 µM, first compound 10 µM
[19] = second compound 1 µM, first compound 0.0316 µM
[20] = second compound 1 µM, first compound 0.1 µM
[21] = second compound 1 µM, first compound 0.316 µM
[22] = second compound 1 µM, first compound 1 µM
[23] = second compound 1 µM, first compound 3.16 µM
[24] = second compound 1 µM, first compound 10 µM
[25] = second compound 3.16 µM, first compound 0.0316 µM
[26] = second compound 3.16 µM, first compound 0.1 µM
[27] = second compound 3.16 µM, first compound 0.316 µM
[28] = second compound 3.16 µM, first compound 1 µM
[29] = second compound 3.16 µM, first compound 3.16 µM
[30] = second compound 3.16 µM, first compound 10 µM
[31] = second compound 10 µM, first compound 0.0316 µM
[32] = second compound 10 µM, first compound 0.1 µM
[33] = second compound 10 µM, first compound 0.316 µM
[34] = second compound 10 µM, first compound 1 µM
[35] = second compound 10 µM, first compound 3.16 µM
[36] = second compound 10 µM, first compound 10 µM
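Further: spheroids exposed to compounds for seven days.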
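Wherever viability, T/C is given: 100% = DMSO vehicle control wells.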

CCCS(=O)(=O)Nc1ccc(F)c(C(=O)c2c[nH]c3ncc(-c4ccc(Cl)cc4)cc23)c1F + CN1CCN(c2cc(C(=O)Nc3cc4cc(-c5cnn(C)c5)ccc4cn3)ccn2)CC1
> 10 µM: IC50 (second compound 0.0316 µM) | IC50 (second compound 0.1 µM) | IC50 (second compound 0.316 µM)
inactive: viability, T/C [1] 112% | viability, T/C [2] 98.8% | viability, T/C [3] 98.3% | viability, T/C [4] 111% | viability, T/C [5] 93.8% | viability, T/C [6] 111% | viability, T/C [7] 105% | viability, T/C [8] 112% | viability, T/C [9] 103% | viability, T/C [10] 103% | viability, T/C [11] 96.5% | viability, T/C [12] 94.5% | viability, T/C [13] 84.1% | viability, T/C [14] 99.5% | viability, T/C [15] 102% | viability, T/C [16] 96.2% | viability, T/C [17] 97.9% | viability, T/C [18] 64.2%
< 0.0316 µM: IC50 (second compound 1 µM) | IC50 (second compound 3.16 µM) | IC50 (second compound 10 µM)
active: viability, T/C [19] 0.91% | viability, T/C [20] 2.34% | viability, T/C [21] 4.24% | viability, T/C [22] 1.9% | viability, T/C [23] 5.13% | viability, T/C [24] 3.9% | viability, T/C [25] 2.27% | viability, T/C [26] 3.77% | viability, T/C [27] 2.71% | viability, T/C [28] 3.9% | viability, T/C [29] 3.24% | viability, T/C [30] 5.64% | viability, T/C [31] 1.34% | viability, T/C [32] 4.22% | viability, T/C [33] 2.17% | viability, T/C [34] 3.01% | viability, T/C [35] 4.86% | viability, T/C [36] 6.03%

COC1C=CCC(C)C(C)S(=O)(=O)NC(=O)c2ccc3c(c2)N(CC2CCC21)CC1(CCCc2cc(Cl)ccc21)CO3 (centres undefined) + CN1CCN(c2cc(C(=O)Nc3cc4cc(-c5cnn(C)c5)ccc4cn3)ccn2)CC1
active: viability, T/C [19] 1.08% | viability, T/C [20] 2.18% | viability, T/C [21] 2.96% | viability, T/C [22] 2.24% | viability, T/C [23] 1.88% | viability, T/C [24] 6.49% | viability, T/C [25] 1.15% | viability, T/C [26] 3.34% | viability, T/C [27] 1.27% | viability, T/C [28] 2.24% | viability, T/C [29] 2.02% | viability, T/C [30] 4.8% | viability, T/C [31] 2.15% | viability, T/C [32] 4.22% | viability, T/C [33] 1.64% | viability, T/C [34] 3.68% | viability, T/C [35] 2.18% | viability, T/C [36] 2.71%
< 0.0316 µM: IC50 (second compound 1 µM) | IC50 (second compound 3.16 µM) | IC50 (second compound 10 µM)
> 10 µM: IC50 (second compound 0.0316 µM) | IC50 (second compound 0.1 µM) | IC50 (second compound 0.316 µM)
inactive: viability, T/C [1] 105% | viability, T/C [2] 106% | viability, T/C [3] 106% | viability, T/C [4] 113% | viability, T/C [5] 104% | viability, T/C [6] 91.6% | viability, T/C [7] 117% | viability, T/C [8] 124% | viability, T/C [9] 107% | viability, T/C [10] 114% | viability, T/C [11] 108% | viability, T/C [12] 90.8% | viability, T/C [13] 84% | viability, T/C [14] 86% | viability, T/C [15] 87.2% | viability, T/C [16] 78.6% | viability, T/C [17] 81.8% | viability, T/C [18] 63.5%
